Results as given in ChEMBL document CHEMBL1201862, “PubChem BioAssay data set” (2004).
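Method: 48-hour compound exposure of cells in 96-well plates, five concentrations, linear interpolation of endpoints. GI50 is the concentration that inhibits growth by half.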 The source made the active and inactive calls. Cut-off read from the data, not from the text of the source: active = GI50 up to about 1.1 µM and inactive = higher.

Assays:
Assay in all cases: inhibition of tumour cell growth, NCI panel, 48 h
[1] = system: HCT-15
[2] = system: SR
[3] = system: SK-MEL-28
[4] = system: KM12
[5] = system: IGROV-1
[6] = system: OVCAR-4
[7] = system: SK-MEL-2
[8] = system: A549
[9] = system: MDA-MB-435
[10] = system: HT-29
[11] = system: ACHN
[12] = system: SNB-75
[13] = system: Hs-578T
[14] = system: SN12C
[15] = system: HOP-92
[16] = system: TK-10
[17] = system: SF-539
[18] = system: MDA-MB-231
[19] = system: Malme-3M
[20] = system: HL-60
[21] = system: 786-0
[22] = system: HOP-62
[23] = system: NCI-H522
[24] = system: HCT-116
[25] = system: SK-OV-3
[26] = system: NCI-H226
[27] = system: SK-MEL-5
[28] = system: UO-31
[29] = system: NCI-H460
[30] = system: UACC-257
[31] = system: K562
[32] = system: SNB-19
[33] = system: DU-145
[34] = system: PC-3
[35] = system: RXF 393
[36] = system: MCF7
[37] = system: CCRF-CEM
[38] = system: EKVX
[39] = system: COLO 205
[40] = system: OVCAR-3
[41] = system: NCI-H23
[42] = system: OVCAR-8
[43] = system: T47D
[44] = system: LOX IMVI
[45] = system: SF-268
[46] = system: OVCAR-5
[47] = system: NCI/ADR-RES
[48] = system: U-251
[49] = system: CAKI-1
[50] = system: M14
[51] = system: MOLT-4
[52] = system: UACC-62
[53] = system: BT-549
[54] = system: SW-620
[55] = system: SF-295
[56] = system: MDA-N
[57] = system: RPMI-8226
[58] = system: HCC 2998
[59] = system: A498

Which GI50 [1] does the source give for `Oc1ccc(C(O)(c2ccccc2)c2ccccc2)c2ccccc12` here?
Its GI50 is 1.22 µM.

What about the GI50 [2] of the same molecule?
Its GI50 is 2.5 µM (inactive).

What about the GI50 [3] of the same molecule?
Its GI50 is 15 µM (inactive).

And the GI50 [4]?
The GI50 was 2.07 µM (inactive).

And the GI50 [5]?
Its GI50 is 1.87 µM (inactive).

What about the GI50 [6] of the same molecule?
Its GI50 is 5.75 µM (inactive).

And the GI50 [7]?
Its GI50 is 2.4 µM (inactive).

And the GI50 [8]?
The GI50 was 3.27 µM (inactive).

What about the GI50 [9] of the same molecule?
Its GI50 is 1.07 µM (active).

And the GI50 [10]?
Its GI50 is 2.77 µM (inactive).

What about the GI50 [11] of the same molecule?
The GI50 was 1.77 µM (inactive).

What about the GI50 [12] of the same molecule?
The GI50 was 4.53 µM (inactive).

And the GI50 [13]?
Its GI50 is 3.88 µM (inactive).

What about the GI50 [14] of the same molecule?
The GI50 was 2.22 µM (inactive).

What about the GI50 [15] of the same molecule?
The GI50 was < 0.01 µM (active).

And the GI50 [16]?
Its GI50 is 2.59 µM (inactive).

What about the GI50 [17] of the same molecule?
The GI50 was 2 µM (inactive).

And the GI50 [18]?
Its GI50 is 1.79 µM (inactive).

And the GI50 [19]?
Its GI50 is 10.2 µM (inactive).

What about the GI50 [20] of the same molecule?
The GI50 was 2.93 µM (inactive).

What about the GI50 [21] of the same molecule?
The GI50 was 2.02 µM (inactive).

And the GI50 [22]?
The GI50 was 2.3 µM (inactive).

What about the GI50 [23] of the same molecule?
The GI50 was 2.42 µM (inactive).

What about the GI50 [24] of the same molecule?
Its GI50 is 2.1 µM (inactive).

And the GI50 [25]?
Its GI50 is 3.25 µM (inactive).

What about the GI50 [26] of the same molecule?
Its GI50 is 2.52 µM (inactive).

What about the GI50 [27] of the same molecule?
Its GI50 is 2.67 µM (inactive).

What about the GI50 [28] of the same molecule?
Its GI50 is 2.97 µM (inactive).

What about the GI50 [29] of the same molecule?
Its GI50 is 2.72 µM (inactive).

What about the GI50 [30] of the same molecule?
Its GI50 is 6.85 µM (inactive).

And the GI50 [31]?
Its GI50 is 3.13 µM (inactive).

And the GI50 [32]?
The GI50 was 5.15 µM (inactive).

What about the GI50 [33] of the same molecule?
Its GI50 is 2.13 µM (inactive).

What about the GI50 [34] of the same molecule?
Its GI50 is 2.25 µM (inactive).

What about the GI50 [35] of the same molecule?
The GI50 was 3.75 µM (inactive).

And the GI50 [36]?
The GI50 was 4.15 µM (inactive).

What about the GI50 [37] of the same molecule?
Its GI50 is 0.019 µM (active).

And the GI50 [38]?
Its GI50 is 10.4 µM (inactive).

What about the GI50 [39] of the same molecule?
Its GI50 is 3.44 µM (inactive).

What about the GI50 [40] of the same molecule?
The GI50 was 1.42 µM (inactive).

And the GI50 [41]?
Its GI50 is 2.79 µM (inactive).

And the GI50 [42]?
Its GI50 is 2.42 µM (inactive).

What about the GI50 [43] of the same molecule?
The GI50 was 2.77 µM (inactive).

And the GI50 [44]?
The GI50 was 1.25 µM (inactive).

What about the GI50 [45] of the same molecule?
Its GI50 is 2.4 µM (inactive).

And the GI50 [46]?
Its GI50 is 2.3 µM (inactive).

And the GI50 [47]?
The GI50 was 2.1 µM (inactive).

And the GI50 [48]?
The GI50 was 1.45 µM (inactive).

What about the GI50 [49] of the same molecule?
The GI50 was 1.82 µM (inactive).

And the GI50 [50]?
Its GI50 is 2.34 µM (inactive).

And the GI50 [51]?
The GI50 was 3.14 µM (inactive).

What about the GI50 [52] of the same molecule?
The GI50 was 1.22 µM (inactive).

What about the GI50 [53] of the same molecule?
The GI50 was 3.85 µM (inactive).

And the GI50 [54]?
The GI50 was 2.64 µM (inactive).

And the GI50 [55]?
The GI50 was 2.9 µM (inactive).

What does the source list for `O=c1[nH]c2ccc(CC(=S)N3CCCCC3)cc2s1`?
GI50 [1]: > 100 µM; GI50 [2]: 26.4 µM (inactive); GI50 [3]: > 100 µM (inactive); GI50 [4]: > 100 µM (inactive); GI50 [7]: > 100 µM (inactive); GI50 [9]: > 100 µM (inactive); GI50 [11]: > 100 µM (inactive); GI50 [12]: 0.163 µM (active); GI50 [16]: > 100 µM (inactive); GI50 [18]: > 100 µM (inactive); GI50 [21]: > 100 µM (inactive); GI50 [22]: 71.9 µM (inactive); GI50 [24]: > 100 µM (inactive); GI50 [25]: > 100 µM (inactive); GI50 [30]: > 100 µM (inactive); GI50 [31]: > 100 µM (inactive); GI50 [32]: > 100 µM (inactive); GI50 [33]: > 100 µM (inactive); GI50 [56]: > 100 µM (inactive); GI50 [34]: > 100 µM (inactive); GI50 [36]: > 100 µM (inactive); GI50 [38]: 0.214 µM (active); GI50 [39]: > 100 µM (inactive); GI50 [40]: > 100 µM (inactive); GI50 [41]: > 100 µM (inactive); GI50 [42]: > 100 µM (inactive); GI50 [44]: > 100 µM (inactive); GI50 [46]: > 100 µM (inactive); GI50 [49]: 91.6 µM (inactive); GI50 [50]: > 100 µM (inactive); GI50 [51]: > 100 µM (inactive); GI50 [52]: > 100 µM (inactive); GI50 [53]: > 100 µM (inactive); GI50 [54]: > 100 µM (inactive); GI50 [55]: > 100 µM (inactive)

Which GI50 [1] does the source give for `NC1CC(=O)c2sccc21` (centres undefined) here?
Its GI50 is greater than 100 µM.

What about the GI50 [2] of the same molecule?
Its GI50 is > 100 µM (inactive).

What about the GI50 [3] of the same molecule?
Its GI50 is > 100 µM (inactive).

What about the GI50 [4] of the same molecule?
Its GI50 is > 100 µM (inactive).

And the GI50 [5]?
Its GI50 is > 100 µM (inactive).

What about the GI50 [6] of the same molecule?
The GI50 was > 100 µM (inactive).

What about the GI50 [7] of the same molecule?
Its GI50 is 27.9 µM (inactive).

What about the GI50 [8] of the same molecule?
Its GI50 is > 100 µM (inactive).

And the GI50 [9]?
Its GI50 is > 100 µM (inactive).

And the GI50 [10]?
The GI50 was > 100 µM (inactive).

What about the GI50 [11] of the same molecule?
The GI50 was > 100 µM (inactive).

What about the GI50 [12] of the same molecule?
Its GI50 is > 100 µM (inactive).

And the GI50 [13]?
Its GI50 is > 100 µM (inactive).

What about the GI50 [14] of the same molecule?
Its GI50 is > 100 µM (inactive).

And the GI50 [15]?
The GI50 was > 100 µM (inactive).

And the GI50 [57]?
Its GI50 is > 100 µM (inactive).

And the GI50 [16]?
Its GI50 is > 100 µM (inactive).

What about the GI50 [17] of the same molecule?
The GI50 was > 100 µM (inactive).

And the GI50 [18]?
The GI50 was > 100 µM (inactive).

What about the GI50 [21] of the same molecule?
Its GI50 is > 100 µM (inactive).

What about the GI50 [58] of the same molecule?
Its GI50 is > 100 µM (inactive).

And the GI50 [22]?
The GI50 was > 100 µM (inactive).

And the GI50 [23]?
Its GI50 is > 100 µM (inactive).

And the GI50 [24]?
The GI50 was > 100 µM (inactive).

What about the GI50 [25] of the same molecule?
The GI50 was > 100 µM (inactive).

And the GI50 [26]?
Its GI50 is > 100 µM (inactive).

And the GI50 [27]?
The GI50 was > 100 µM (inactive).

What about the GI50 [28] of the same molecule?
Its GI50 is > 100 µM (inactive).

What about the GI50 [30] of the same molecule?
The GI50 was > 100 µM (inactive).

And the GI50 [31]?
The GI50 was > 100 µM (inactive).

What about the GI50 [32] of the same molecule?
Its GI50 is > 100 µM (inactive).

And the GI50 [33]?
Its GI50 is > 100 µM (inactive).

And the GI50 [34]?
The GI50 was 56.4 µM (inactive).

And the GI50 [35]?
The GI50 was 29.6 µM (inactive).

And the GI50 [36]?
Its GI50 is > 100 µM (inactive).

And the GI50 [37]?
The GI50 was > 100 µM (inactive).

What about the GI50 [38] of the same molecule?
The GI50 was > 100 µM (inactive).

And the GI50 [39]?
Its GI50 is > 100 µM (inactive).

And the GI50 [40]?
The GI50 was > 100 µM (inactive).

And the GI50 [59]?
Its GI50 is > 100 µM (inactive).

And the GI50 [41]?
The GI50 was > 100 µM (inactive).

What about the GI50 [42] of the same molecule?
The GI50 was > 100 µM (inactive).

What about the GI50 [43] of the same molecule?
Its GI50 is > 100 µM (inactive).

And the GI50 [45]?
The GI50 was > 100 µM (inactive).

And the GI50 [46]?
The GI50 was > 100 µM (inactive).

And the GI50 [47]?
The GI50 was > 100 µM (inactive).

And the GI50 [48]?
The GI50 was > 100 µM (inactive).

What about the GI50 [49] of the same molecule?
Its GI50 is > 100 µM (inactive).

What about the GI50 [50] of the same molecule?
The GI50 was > 100 µM (inactive).

And the GI50 [51]?
The GI50 was > 100 µM (inactive).

And the GI50 [52]?
Its GI50 is > 100 µM (inactive).

And the GI50 [53]?
Its GI50 is > 100 µM (inactive).

And the GI50 [54]?
The GI50 was > 100 µM (inactive).

And the GI50 [55]?
Its GI50 is > 100 µM (inactive).
